Laboratory results from paper PMC7614720 (European journal of medicinal chemistry, 2021).

How the values were obtained:
NDM-1 = NDM-1 (Klebsiella pneumoniae, UniProt C7C422); assay: 1H NMR of enzymatic hydrolysis products; assay type: biochemical
OXA-48 = OXA-48 (Klebsiella pneumoniae, UniProt Q6XEC0); assay: 1H NMR of enzymatic hydrolysis products; assay type: biochemical
Sequence of OXA-48 (Q6XEC0 23-265 limits assumed): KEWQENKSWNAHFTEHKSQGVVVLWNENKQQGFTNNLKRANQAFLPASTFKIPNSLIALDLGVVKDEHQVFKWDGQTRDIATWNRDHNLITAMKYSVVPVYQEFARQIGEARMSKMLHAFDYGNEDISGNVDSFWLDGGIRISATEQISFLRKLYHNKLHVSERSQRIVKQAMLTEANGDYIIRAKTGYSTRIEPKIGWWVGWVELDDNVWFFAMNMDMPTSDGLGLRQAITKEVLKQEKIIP

Sequence of NDM-1 (C7C422 29-270, looked up): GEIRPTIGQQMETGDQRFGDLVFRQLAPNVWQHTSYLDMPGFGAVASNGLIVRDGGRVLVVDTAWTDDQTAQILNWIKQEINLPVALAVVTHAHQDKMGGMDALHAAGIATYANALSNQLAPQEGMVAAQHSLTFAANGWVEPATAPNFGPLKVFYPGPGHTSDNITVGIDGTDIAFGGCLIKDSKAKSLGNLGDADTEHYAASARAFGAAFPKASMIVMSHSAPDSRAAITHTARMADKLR

C[C@@H](O)[C@H]1C(=O)N2C(C(=O)O)=C([C@H]3CCCO3)S[C@H]12 [faropenem]
1H NMR of enzymatic hydrolysis products (5 μM enzyme, 5 min) (NDM-1): we subsequently studied the reaction of faropenem with other SBLs/MBLs
1H NMR of enzymatic hydrolysis products (5 μM enzyme, 55 min) (OXA-48): the class D SBLs OXA-10, OXA-23 and OXA-48 and the B1 MBLs NDM-1 and VIM-1
